Target: T1, HCV-NS5b (Hepatitis C virus genotype 1b, UniProt Q9WMX2)
T1 construct: (His)6 (C); made in house; host or cells: XL-1 cells (E. coli), IPTG-inducible plasmid, nickel-NTA purification
Experiment: HCV-NS5b enzyme assay (incorporation of radiolabeled UTP)
Type: biochemical
Conditions: for inhibition at 33 µM: enzyme inhibition at compound concentration of 33 uM; for inhibition at 100 µM: read-out: % inh@100, enzyme inhibition at compound concentration of 100 uM
Method in brief: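 Percent inhibition, background-corrected against uninhibited control, was measured at 100 and 33 uM compound. Incorporation of [3H]-UTP (10 μM each NTP) into biotinylated HCV-template RNA, 37° C for 2 h, pH 7.5, scintillation proximity. Enzyme: C-terminally truncated (21 aa), His6-tagged NS5b from XL-1.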

O=C(O)CNC(=O)c1ccc2c(c1)nc(-c1ccc3nc(-c4ccccc4)cnc3c1)n2C1CCCCC1 [Compound 311, {[1-Cyclohexyl-2-(2-phenyl-quinoxalin-6-yl)-1H-benzoimidazole-5-carbonyl]-amino}-acetic acid] showed an inhibition at 33 µM of 83% and an inhibition at 100 µM of 93.3%.
In the case of COc1ccc(-c2ccc(Cl)cc2)c(-c2ccc3cc(-c4nc5cc(C(=O)O)ccc5n4C4CC4)ccc3n2)c1 [Compound 528, 2-[2-(4′-chloro-4-methoxy-biphen-2-yl)-quinolin-6-yl]-1-cyclopropyl-1H-benzoimidazole-5-carboxylic acid], the inhibition at 33 µM is reported as 100% and the inhibition at 100 µM is reported as 101%.
In the case of CC(=O)Nc1ccc(-c2ccc3cc(-c4nc5cc(C(=O)O)ccc5n4C4CCCCC4)ccc3n2)cc1 [Compound 501, 2-[2-(4-acetylamino-phenyl)-quinolin-6-yl]-1-cyclohexyl-1H-benzoimidazole-5-carboxylic acid], the inhibition at 33 µM is reported as 90.6% and the inhibition at 100 µM is reported as 96.8%.
Work on CC(C)[C@H](NC(=O)c1ccc2cc(-c3nc4cc(C(=O)O)ccc4n3C3CCCCC3)ccc2n1)C(N)=O [Compound 511, 2-[2-(1-Carbamoyl-2-methylpropylcarbamoyl)quinolin-6-yl]-1-cyclohexyl-1H-benzimidazole-5-carboxylic acid] yielded an inhibition at 33 µM of 78.4% and an inhibition at 100 µM of 95%.
CCn1c(-c2ccc3nc(-c4cc(OC)ccc4-c4ccc(Cl)cc4)ccc3c2)nc2cc(C(=O)O)ccc21 [Compound 534, 2-[2-(4′-chloro-4-methoxy-biphen-2-yl)-quinolin-6-yl]-1-ethyl-1H-benzoimidazole-5-carboxylic acid] gave an inhibition at 33 µM of 90.1% and an inhibition at 100 µM of 101%.
Work on O=C(O)c1ccc2c(c1)nc(-c1cc3ccc(-c4ccccc4-c4ccccc4)nc3cc1F)n2C1CCCCC1 [Compound 388, 2-(2-Biphen-2-yl-7-fluoro-quinolin-6-yl)-1-cyclohexyl-1H-benzoimidazole-5-carboxylic acid] yielded an inhibition at 33 µM of 98.7% and an inhibition at 100 µM of 98.6%.
For O=C(N[C@@H](Cc1c[nH]c2ccc(O)cc12)C(=O)O)c1ccc2c(c1)nc(-c1ccc3nc(-c4cc(C(=O)N5CCCC5)ccc4-c4ccc(Cl)cc4)ccc3c1)n2C1CCCCC1 [Compound 235, 2-[(2-{2-[4′-Chloro-4-(pyrrolidine-1-carbonyl)-biphen-2-yl]-quinolin-6-yl}-1-cyclohexyl-1H-benzoimidazole-5-carbonyl)-amino]-3-(5-hydroxy-1H-indol-3-yl)-propionic acid], the inhibition at 33 µM was 99.1% and the inhibition at 100 µM was 99.5%.
Work on COc1ccc(-c2ccc(Cl)cc2)c(-c2ccc3cc(-c4nc5cc(C(=O)O)ccc5n4CCN(C)C)ccc3n2)c1 [Compound 533, 2-[2-(4′-chloro-4-methoxy-biphen-2-yl)-quinolin-6-yl]-1-(2-dimethylamino-ethyl)-1H-benzoimidazole-5-carboxylic acid] yielded an inhibition at 33 µM of 56.8% and an inhibition at 100 µM of 89.8%.
For O=C(O)c1ccc2[nH]c(-c3ccc4nc(-c5ccccc5-c5ccc(Cl)cc5)ccc4c3)nc2c1 [Compound 353, 2-[2-(4′-Chloro-biphen-2-yl)-quinolin-6-yl]-1H-benzoimidazole-5-carboxylic acid], the inhibition at 33 µM was 67.3% and the inhibition at 100 µM was 67.5%.
Compound COc1ccc(-c2ccc(C#N)cc2)c(-c2ccc3cc(-c4nc5cc(C(=O)O)ccc5n4C4CCCCC4)ccc3n2)c1 [Compound 365, 2-[2-(4′-cyano-4-methoxy-biphen-2-yl)-quinolin-6-yl]-1-cyclohexyl-1H-benzoimidazole-5-carboxylic acid] has an inhibition at 33 µM of 102% and an inhibition at 100 µM of 103%.
With O=C(N[C@@H](Cc1c[nH]c2ccc(O)cc12)C(=O)O)c1ccc2c(c1)nc(-c1ccc3nc(-c4ccccc4)cnc3c1)n2C1CCCCC1 [Compound 234, 2-{[1-Cyclohexyl-2-(2-phenyl-quinoxalin-6-yl)-1H-benzoimidazole-5-carbonyl]-amino}-3-(5-hydroxy-1H-indol-3-yl)-propionic acid] the inhibition at 33 µM was 98.6% and the inhibition at 100 µM was 100%.
C[C@@H](O)[C@H](NC(=O)c1ccc2c(c1)nc(-c1ccc3nc(-c4ccccc4)cnc3c1)n2C1CCCCC1)C(=O)O [Compound 512, 2-{[1-Cyclohexyl-2-(2-phenyl-quinoxalin-6-yl)-1H-benzoimidazole-5-carbonyl]-amino}-3-hydroxy-butyric acid] was tested, and the inhibition at 33 µM was 78.9% and the inhibition at 100 µM was 97.9%.
For CC1(C)C(CC(=O)O)CC1c1ccc2cc(-c3nc4cc(C(=O)O)ccc4n3C3CCCCC3)ccc2n1 (stereo not shown) [Compound 502, 2-[2-(3-carboxymethyl-2,2-dimethyl-cyclobutyl)-quinolin-6-yl]-1-cyclohexyl-1H-benzoimidazole-5-carboxylic acid], the inhibition at 33 µM was 99% and the inhibition at 100 µM was 100%.
O=C(O)c1cnc2c(c1)nc(-c1ccc3nc(-c4ccccc4-c4ccc(Cl)cc4)ccc3c1)n2C1CCCCC1 [Compound 490, 2-[2-(4′-chloro-biphen-2-yl)-quinolin-6-yl]-3-cyclohexyl-3H-imidazo[4,5-b]pyridine-6-carboxylic acid] was tested, and the inhibition at 33 µM was 95.9% and the inhibition at 100 µM was 94.3%.
Compound COc1ccc(-c2ccc(Cl)cc2)c(-c2ccc3cc(-c4nc5cc(C(=O)O)ccc5n4C(C)C)ccc3n2)c1 [Compound 527, 2-[2-(4′-chloro-4-methoxy-biphen-2-yl)-quinolin-6-yl]-1-isopropyl-1H-benzoimidazole-5-carboxylic acid] has an inhibition at 33 µM of 99.4% and an inhibition at 100 µM of 101%.
For Nc1c(Cl)cc(-c2ccc3cc(-c4nc5cc(C(=O)O)ccc5n4C4CCCCC4)ccc3n2)cc1Cl [Compound 363, 2-[2-(4-amino-3,5-dichloro-phenyl)-quinolin-6-yl]-1-cyclohexyl-1H-benzoimidazole-5-carboxylic acid], the inhibition at 33 µM was 98.4% and the inhibition at 100 µM was 101%.
CC(C)(C)OC(=O)NCCNc1cc(-c2ccccc2)nc2ccc(-c3nc4cc(C(=O)O)ccc4n3C3CCCCC3)cc12 [Compound 399, 2-[4-(2-tert-butoxycarbonylamino-ethylamino)-2-phenyl-quinolin-6-yl]-1-cyclohexyl-1H-benzoimidazole-5-carboxylic acid] was tested, and the inhibition at 33 µM was 95.6% and the inhibition at 100 µM was 102%.
In the case of NC(=O)C[C@H](NC(=O)c1ccc2c(c1)nc(-c1ccc3nc(-c4ccccc4)cnc3c1)n2C1CCCCC1)C(=O)O [Compound 518, 2-{[1-Cyclohexyl-2-(2-phenyl-quinoxalin-6-yl)-1H-benzoimidazole-5-carbonyl]-amino}-succinamic acid], the inhibition at 33 µM is reported as 76% and the inhibition at 100 µM is reported as 97.8%.
NC(=O)CNC(=O)c1ccc(-c2ccc(Cl)cc2)c(-c2ccc3cc(-c4nc5cc(C(=O)O)ccc5n4C4CCCCC4)ccc3n2)c1 [Compound 361, 2-{2-[4-(Carbamoylmethyl-carbamoyl)-4′-chloro-biphen-2-yl]-quinolin-6-yl}-1-cyclohexyl-1H-benzoimidazole-5-carboxylic acid] was tested, and the inhibition at 33 µM was 100% and the inhibition at 100 µM was 98.7%.
O=C(O)c1ccc2c(c1)nc(-c1ccc3nc(-c4cccc(C(=O)N5CCCC5)c4)ccc3c1)n2C1CCCCC1 [Compound 370, 1-Cyclohexyl-2-{2-[3-(pyrrolidine-1-carbonyl)-phenyl]-quinolin-6-yl}-1H-benzoimidazole-5-carboxylic acid] showed an inhibition at 33 µM of 97.8% and an inhibition at 100 µM of 99.7%.
